Test [1] deals with Haemonchus contortus. Kind of test: Efficacy against Haemonchus contortus in jirds. Format: in vivo, jirds (Meriones unguiculatus). The following applies: 72 h, read-out: % Reduction in H. The method, then:
Anthelmintic effects of compounds of this invention were tested in vivo using Haemonchus contuortus in jirds (Meriones unguiculatus). The jirds were orally infected with approximately 750-3,000 third-stage larvae of Haemonchus contortus. Ten days after infection, the jirds in the treatment groups were treated once orally or subcutaneously at a dose of 2, 10, and/or 50 mg per kg bodyweight. Three days after treatment, the jirds were necropsied, and the larvae burden in the stomach is determined. The efficacy is defined as the reduction of the mean larvae count in the jirds of the treatment groups in comparison to the infected jirds in the untreated negative control group.

Test [2] deals with A. galli (intestinal roundworm of chicken) larval stage 3; O. dentatum (nodular worm of swine) larval stages 3 and 4. Kind of test: Activity against Ascaridia galli and Oesophagostomum dentatum larvae in vitro (minimum effective concentration). Format: cell-based.
The mark [3] stands for this setting: in vitro, two or more of A. galli L3, O. dentatum L3, L4, threshold 1 μM, read-out: MEC (minimum effective concentration) against two or more of the tested nematodes.
Where [4] appears, read: in vitro, one or more of A. galli L3, O. dentatum L3, L4, threshold 1 μM, read-out: MEC (minimum effective concentration) against one or more of the tested nematodes.
[5] abbreviates: in vitro, one or more of A. galli L3, O. dentatum L3, L4, threshold 7 μM, read-out: MEC (minimum effective concentration) against one or more of the tested nematodes.
[6] abbreviates: read-out: MEC (minimum effective concentration) against two or more of the tested nematodes, in vitro, two or more of A. galli L3, O. dentatum L3, L4, threshold 1 μM.

Where two headings read alike, the source gives them in different places.

For `O=C(CCN1CCN(c2ccc(OCc3ccccc3)cc2)CC1)N1CCC(Oc2ccc([N+](=O)[O-])c(C(F)(F)F)c2)CC1` [Example 58, 3-[4-(4-benzyloxy-phenyl)-piperazin-1-yl]-1-[4-(4-nitro-3-trifluoromethyl-phenoxy)-piperidin-1-yl]-propan-1-one], the inhibition in vivo at 50 mg/kg in test [1] (po) turned out to be 0%; in test [1] (sc) it was 59%.

As for `O=C(CCCN1CCN(c2ccc(C(F)(F)F)cc2)CC1)N1CCC(Nc2ccc([N+](=O)[O-])c(C(F)(F)F)c2)CC1` [Example 89, 1-[4-(4-nitro-3-trifluoromethyl-phenylamino)-piperidin-1-yl]-4-[4-(4-trifluoromethyl-phenyl)-piperazin-1-yl]-butan-1-one], the inhibition in vivo at 10 mg/kg in test [1] (po) was found to be 99%; in test [1] (sc) it was 98%.

With `CN(C)S(=O)(=O)c1ccc(NC2CCN(C(=S)CCCN3CCN(c4ccc(C(F)(F)F)cc4)CC3)CC2)cc1C(F)(F)F` [Example 699], the minimal effective concentration in test [2] (setting [3]) is below 1 µM.

In the case of `FC(F)(F)Oc1ccc(NC2CCN(C(=S)CCCN3CCN(c4ccc(C(F)(F)F)cc4)CC3)CC2)cc1` [Example 701], the minimal effective concentration in test [2] (setting [3]) was below 1 µM.

Regarding `O=C(CCCN1CC2CN(c3ccc(C(F)(F)F)cc3)CC2C1)N1CCC(Nc2ccc([N+](=O)[O-])c(C(F)(F)F)c2)CC1` (stereo not shown) [Example 715], the minimal effective concentration in test [2] (setting [4]) and in test [2] (setting [3]) was below 1 µM throughout.

For `O=C(CCCN1CC2CN(c3ccc(Cl)cc3)CC2C1)N1CCC(Nc2ccc([N+](=O)[O-])c(C(F)(F)F)c2)CC1` (stereo not shown) [Example 716], the minimal effective concentration in test [2] (setting [4]) and in test [2] (setting [3]) was below 1 µM each time.

Turning to `O=C(CCN1CCN(c2nnc(C(F)(F)F)s2)CC1)N1CC[C@H](Nc2ccc([N+](=O)[O-])c(C(F)(F)F)c2)C1` [Example 720], the minimal effective concentration in test [2] (setting [4]) is below 1 µM.

Consider `O=C(CCN1CCCN(c2ccc(C(F)(F)F)cc2)CC1)N1CC[C@H](Nc2ccc([N+](=O)[O-])c(C(F)(F)F)c2)C1` [Example 725], for which the minimal effective concentration in test [2] (setting [3]) was below 1 µM.

Regarding `O=C(CCCN1CCN(c2ccc(C(F)(F)F)cc2)CC1)N1CC[C@H](Nc2ccc([N+](=O)[O-])c(C(F)(F)F)c2)C1` [Example 730], the minimal effective concentration in test [2] (setting [4]) and in test [2] (setting [3]) was below 1 µM in each case.

With `O=C(CCCN1CCN(c2ccc(Cl)cc2)CC1)N1CC[C@H](Nc2ccc([N+](=O)[O-])c(C(F)(F)F)c2)C1` [Example 731], the minimal effective concentration in test [2] (setting [4]) was below 1 µM.

On to `O=C(CCCC1CCN(c2ccc(C(F)(F)F)cc2)CC1)N1CC[C@H](Nc2ccc([N+](=O)[O-])c(C(F)(F)F)c2)C1` [Example 733], for which the minimal effective concentration was below 1 µM in test [2] (setting [4]) and below 7 µM in test [2] (setting [5]).

For the molecule `O=C(CCCC1CCN(c2ccc(Cl)cc2)CC1)N1CC[C@H](Nc2ccc([N+](=O)[O-])c(C(F)(F)F)c2)C1` [Example 734], the minimal effective concentration in test [2] (setting [5]) was below 7 µM.

Consider `O=C(CCCN1CC2CN(c3ccc(C(F)(F)F)cc3)CC2C1)N1CC[C@H](Nc2ccc([N+](=O)[O-])c(C(F)(F)F)c2)C1` (stereo partly shown) [Example 743], for which, in test [2] (setting [5]), the minimal effective concentration was below 7 µM.

Turning to `COc1ccc(N2CCN(CCCC(=O)N3CC[C@H](Nc4ccc([N+](=O)[O-])c(C(F)(F)F)c4)C3)CC2)cn1` [Example 746], the minimal effective concentration in test [2] (setting [4]) was below 1 µM.

Turning to `O=C(CCCN1CCN(c2nnc(C(F)(F)F)s2)CC1)N1CC[C@H](Nc2ccc([N+](=O)[O-])c(C(F)(F)F)c2)C1` [Example 749], the minimal effective concentration in test [2] (setting [4]) was below 1 µM.

As for `CC(CN1CCN(c2ccc(Cl)cc2)CC1)C(=O)N1CC[C@@H](Nc2ccc([N+](=O)[O-])c(C(F)(F)F)c2)C1` (stereo partly shown) [Example 752], the minimal effective concentration in test [2] (setting [6]) was below 1 µM.

As to `N#Cc1ccc(NC2CCN(C(=O)CCCC3CCN(c4ccc(Cl)cc4)CC3)CC2)cc1C(F)(F)F` [Example 754], in test [2] (setting [6]), the minimal effective concentration was below 1 µM.

For `N#Cc1ccc(NC2CCN(C(=O)CCCN3CCCN(c4ccc(Cl)cc4)CC3)CC2)cc1C(F)(F)F` [Example 757], the minimal effective concentration in test [2] (setting [6]) was below 1 µM.

In the case of `N#Cc1ccc(NC2CCN(C(=O)CCCN3CCC(Nc4ccc(Cl)cc4)CC3)CC2)cc1C(F)(F)F` [Example 759], the minimal effective concentration in test [2] (setting [3]) was below 1 µM.

As to `COc1ccc(N2CCN(CCCC(=O)N3CCC(Nc4ccc(C#N)c(C(F)(F)F)c4)CC3)CC2)cn1` [Example 760], the minimal effective concentration in test [2] (setting [6]) was below 1 µM.

In the case of `N#Cc1ccc(NC2CCN(C(=O)CCN3CCN(c4ccc(Cl)cn4)CC3)CC2)cc1C(F)(F)F` [Example 764], the minimal effective concentration in test [2] (setting [6]) is below 1 µM.

With `N#Cc1ccc(NC2CCN(C(=O)CCN3CCCN(c4ccc(Cl)cc4)CC3)CC2)cc1C(F)(F)F` [Example 770], the minimal effective concentration in test [2] (setting [6]) was below 1 µM.

`O=C(CCCC1CCN(c2ccc(Cl)cc2)CC1)N1CC[C@@H](Nc2ccc([N+](=O)[O-])c(C(F)(F)F)c2)C1` [Example 774]: the minimal effective concentration in test [2] (setting [4]) and in test [2] (setting [3]) was below 1 µM each time.

For the molecule `O=C(CCC1CCN(c2ccc(C(F)(F)F)cc2)CC1)N1CC[C@@H](Nc2ccc([N+](=O)[O-])c(C(F)(F)F)c2)C1` [Example 775], the minimal effective concentration in test [2] (setting [4]) is below 1 µM.

As for `O=C(CCCN1CCCN(c2ccc(Cl)cc2)CC1)N1CC[C@@H](Nc2ccc([N+](=O)[O-])c(C(F)(F)F)c2)C1` [Example 777], the minimal effective concentration in test [2] (setting [4]) is below 1 µM.

For `CC(C)(C)c1ccc(N2CCCN(CCCC(=O)N3CC[C@@H](Nc4ccc([N+](=O)[O-])c(C(F)(F)F)c4)C3)CC2)cc1` [Example 778], the minimal effective concentration in test [2] (setting [4]) and in test [2] (setting [3]) was below 1 µM throughout.

In the case of `O=C(CCCN1CCN(c2nnc(C(F)(F)F)s2)CC1)N1CC[C@@H](Nc2ccc([N+](=O)[O-])c(C(F)(F)F)c2)C1` [Example 784], the minimal effective concentration in test [2] (setting [4]) is below 1 µM.

For `CC(CN1CCN(c2ccc(C(C)(C)C)cc2)CC1)C(=O)N1CC[C@@H](Nc2ccc([N+](=O)[O-])c(C(F)(F)F)c2)C1` (stereo partly shown) [Example 787], the minimal effective concentration in test [2] (setting [4]) is below 1 µM.

Regarding `O=C(CCN1CCN(c2ccc(Cl)cc2)CC1)N1CC[C@@H](Nc2ccc([N+](=O)[O-])c(C(F)(F)F)c2)C1` [Example 789], the minimal effective concentration in test [2] (setting [4]) and in test [2] (setting [3]) was below 1 µM throughout.

As for `CC(C)(C)c1ccc(N2CCN(CCC(=O)N3CC[C@@H](Nc4ccc([N+](=O)[O-])c(C(F)(F)F)c4)C3)CC2)cc1` [Example 790], in test [2] (setting [4]), the minimal effective concentration is below 1 µM.

Turning to `O=C(CCCN1CCN(c2ccc(Cl)cc2)CC1)N1CC[C@@H](Nc2ccc([N+](=O)[O-])c(C(F)(F)F)c2)C1` [Example 792], the minimal effective concentration in test [2] (setting [4]) was below 1 µM.

In the case of `O=C(CCN1CCN(c2ccc(Cl)cn2)CC1)N1CC[C@@H](Nc2ccc([N+](=O)[O-])c(C(F)(F)F)c2)C1` [Example 795], the minimal effective concentration in test [2] (setting [4]) was below 1 µM.

As to `O=C(CCN1CCCN(c2ccc(Cl)cc2)CC1)N1CC[C@@H](Nc2ccc([N+](=O)[O-])c(C(F)(F)F)c2)C1` [Example 799], in test [2] (setting [4]), the minimal effective concentration is below 1 µM.

In the case of `O=C(CCN1CCN(c2ccc(C(F)(F)F)cc2)CC1)N1CCCN(c2ccc([N+](=O)[O-])c(C(F)(F)F)c2)CC1` [Example 997], in test [2] (setting [5]), the minimal effective concentration was below 7 µM.

Regarding `CC(C)(C)c1ccc(N2CCN(CCC(=O)N3CCCN(c4ccc([N+](=O)[O-])c(C(F)(F)F)c4)CC3)CC2)cc1` [Example 998], in test [2] (setting [5]), the minimal effective concentration is below 7 µM.

Take `O=C(CCCN1CCN(c2ccc(C(F)(F)F)cc2)CC1)N1CCCN(c2ccc([N+](=O)[O-])c(C(F)(F)F)c2)CC1` [Example 1001]: the minimal effective concentration in test [2] (setting [5]) is below 7 µM.

For `CC(C)(C)c1ccc(N2CCN(CCCC(=O)N3CCCN(c4ccc([N+](=O)[O-])c(C(F)(F)F)c4)CC3)CC2)cc1` [Example 1003], the minimal effective concentration in test [2] (setting [5]) is below 7 µM.

As to `N#Cc1ccc(N2CCCN(C(=O)CCCN3CCN(c4ccc(C(F)(F)F)cc4)CC3)CC2)cc1C(F)(F)F` [Example 1008], in test [2] (setting [4]), the minimal effective concentration is below 1 µM.

Consider `CC(C)(C)c1ccc(N2CCN(CCCC(=O)N3CCCN(c4ccc(C#N)c(C(F)(F)F)c4)CC3)CC2)cc1` [Example 1010], for which, in test [2] (setting [4]), the minimal effective concentration is below 1 µM.

As for `O=C(CCCN1CCN(c2ccc(C(F)(F)F)cc2)CC1)N1CCCN(c2ccc(C(F)(F)F)cn2)CC1` [Example 1014], the minimal effective concentration in test [2] (setting [4]) is below 1 µM.

Take `O=C(CCN1CCN(c2ccc(C(F)(F)F)cc2)CC1)N1CCCN(c2ccc(SC(F)(F)F)cc2)CC1` [Example 1017]: the minimal effective concentration in test [2] (setting [4]) is below 1 µM.

`CC(C)(C)c1ccc(N2CCN(CCC(=O)N3CCCN(c4ccc(SC(F)(F)F)cc4)CC3)CC2)cc1` [Example 1019]: in test [2] (setting [4]), the minimal effective concentration is below 1 µM.

Take `COc1ccc(N2CCN(CCC(=O)N3CCCN(c4ccc(SC(F)(F)F)cc4)CC3)CC2)cc1` [Example 1020]: in test [2] (setting [4]), the minimal effective concentration was below 1 µM.

For `O=C(CCCN1CCN(c2ccc(C(F)(F)F)cc2)CC1)N1CCCN(c2ccc(SC(F)(F)F)cc2)CC1` [Example 1027], in test [2] (setting [4]), the minimal effective concentration was below 1 µM.

For the molecule `O=C(CCCN1CCN(c2ccc(Cl)cc2)CC1)N1CCCN(c2ccc(SC(F)(F)F)cc2)CC1` [Example 1028], in test [2] (setting [4]), the minimal effective concentration is below 1 µM.

As to `O=C(CCCN1CCN(c2ccc(C(F)(F)F)cc2)CC1)N1CCN(c2ccc(SC(F)(F)F)cc2)CC1` [Example 1033], the minimal effective concentration in test [2] (setting [3]) is below 1 µM.
